Laboratory results from the supplement of paper PMC10627819.

Key:
[1] = tested on: B. subtilis 168; assay: fitness (endpoint OD595 vs no drug) (fraction); higher = more growth
Outline: (§1)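 Fitness was defined as the optical density at the transition into stationary phase relative to the robust mean of no-drug control wells. Values were capped at 1. Cultures were started at OD595 0.01 in 384-well plates (30 µl, or 55 µl for S. pneumoniae) in TSB, LB Lennox or CY at 37 °C. OD595 was recorded every 30 min over 14 h, with the first reading subtracted as background.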

[2] = tested on: S. aureus DSM 20231; assay: as above
Outline: as §1

[3] = tested on: S. pneumoniae D39V; assay: as above
Outline: as §1

[4] = tested on: S. aureus Newman; assay: Bliss interaction score (quartile over a dose matrix) (fitness difference); higher = more antagonism (negative = synergy)
Outline: (§2)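 The Bliss score is observed minus expected fitness under the product model, reported as quartiles over technical, biological and donor/recipient replicates. Fitness is the OD595 at entry into stationary phase divided by the plate's robust no-drug mean and capped at 1. Single-drug fitness was inferred from combination data.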

[5] = tested on: B. subtilis 168; assay: as above
Outline: as §2

[6] = tested on: S. aureus DSM 20231; assay: as above
Outline: as §2

[7] = tested on: S. pneumoniae D39V; assay: as above
Outline: as §2
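Wherever Bliss interaction score (quartile over a dose matrix) is given: first quartile when negative (synergy) and third quartile when positive (antagonism).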

CCC[C@@H]1C[C@@H](C(=O)N[C@@H]([C@H]2O[C@H](SC)[C@H](O)[C@@H](O)[C@H]2O)[C@@H](C)O)N(C)C1 [Lincomycin] + C[n+]1ccc(-c2cc[n+](C)cc2)cc1 [Paraquat]
Details | fitness
[1], first compound 0.1 µg/mL, partner 1.25 µg/mL | 0.92
[1], first compound 0.1 µg/mL, partner 2.5 µg/mL | 0.92
[1], first compound 0.1 µg/mL, partner 5 µg/mL | 0.968
[1], first compound 0.2 µg/mL, partner 1.25 µg/mL | 0.923
[1], first compound 0.2 µg/mL, partner 2.5 µg/mL | 0.855
[1], first compound 0.2 µg/mL, partner 5 µg/mL | 0.833
[1], first compound 0.4 µg/mL, partner 1.25 µg/mL | 0.878
[1], first compound 0.4 µg/mL, partner 2.5 µg/mL | 0.845
[1], first compound 0.4 µg/mL, partner 5 µg/mL | 0.814
[2], first compound 0.1 µg/mL, partner 1.25 µg/mL | 0.801
[2], first compound 0.1 µg/mL, partner 2.5 µg/mL | 0.802
[2], first compound 0.1 µg/mL, partner 5 µg/mL | 0.838
[2], first compound 0.2 µg/mL, partner 1.25 µg/mL | 0.739
[2], first compound 0.2 µg/mL, partner 2.5 µg/mL | 0.719
[2], first compound 0.2 µg/mL, partner 5 µg/mL | 0.692
[2], first compound 0.4 µg/mL, partner 5 µg/mL | 0.28
[3], first compound 0.215 µg/mL, partner 1.5 µg/mL | 0.885
[3], first compound 0.215 µg/mL, partner 3 µg/mL | 0.863
[3], first compound 0.215 µg/mL, partner 6 µg/mL | 0.814
[3], first compound 0.43 µg/mL, partner 1.5 µg/mL | 0.774
[3], first compound 0.43 µg/mL, partner 3 µg/mL | 0.733
[3], first compound 0.43 µg/mL, partner 6 µg/mL | 0.711
[3], first compound 0.86 µg/mL, partner 1.5 µg/mL | 0.56
[3], first compound 0.86 µg/mL, partner 3 µg/mL | 0.407
[3], first compound 0.86 µg/mL, partner 6 µg/mL | 0.453

fitness, [3], one replicate
Details | first compound 0.2 µg/mL | first compound 0.4 µg/mL | first compound 0.8 µg/mL
partner 1.5 µg/mL | 0.83 | 0.758 | 0.675
partner 3 µg/mL | 0.866 | 0.751 | 0.729
partner 6 µg/mL | 0.889 | 0.802 | 0.776

Details | Bliss interaction score
[4] | -0.191
[5] | 0.0402
[6] | -0.0564
[7] | 0.0842

CCC[C@@H]1C[C@@H](C(=O)N[C@@H]([C@H]2O[C@H](SC)[C@H](O)[C@@H](O)[C@H]2O)[C@@H](C)O)N(C)C1 [Lincomycin] + Cc1cc(NS(=O)(=O)c2ccc(N)cc2)no1 [Sulfamethoxazol]
fitness
Details | first compound 0.1 µg/mL | first compound 0.2 µg/mL | first compound 0.215 µg/mL | first compound 0.4 µg/mL | first compound 0.43 µg/mL | first compound 0.86 µg/mL
[1], partner 1 µg/mL | 0.831 | 0.862 | – | 0.891 | – | –
[1], partner 2 µg/mL | 0.872 | 0.874 | – | 0.841 | – | –
[1], partner 4 µg/mL | 0.893 | 0.938 | – | 0.895 | – | –
[2], partner 1 µg/mL | 0.82 | 0.616 | – | 0.343 | – | –
[2], partner 2 µg/mL | 0.815 | 0.687 | – | 0.37 | – | –
[2], partner 4 µg/mL | 0.828 | 0.697 | – | 0.304 | – | –
[3], partner 1 µg/mL | – | – | 0.746 | – | 0.658 | 0.252
[3], partner 2 µg/mL | – | – | 0.762 | – | 0.676 | 0.214
[3], partner 4 µg/mL | – | – | 0.786 | – | 0.691 | 0.265

fitness, one replicate
Details | first compound 0.2 µg/mL | first compound 0.4 µg/mL | first compound 0.8 µg/mL | first compound 1.6 µg/mL
[1], partner 0.5 µg/mL | – | 0.903 | 0.806 | 0.862
[1], partner 1 µg/mL | – | – | 0.76 | 0.698
[1], partner 2 µg/mL | – | – | 0.795 | 0.788
[3], partner 1 µg/mL | 0.731 | 0.674 | 0.323 | –
[3], partner 2 µg/mL | 0.761 | 0.688 | 0.346 | –
[3], partner 4 µg/mL | 0.724 | 0.621 | 0.308 | –

Details | Bliss interaction score
[4] | 0.0671
[5] | -0.0615
[6] | -0.0797
[7] | -0.128

CCC[C@@H]1C[C@@H](C(=O)N[C@@H]([C@H]2O[C@H](SC)[C@H](O)[C@@H](O)[C@H]2O)[C@@H](C)O)N(C)C1 [Lincomycin] + Cc1ncc([N+](=O)[O-])n1CCO [Metronidazole]
Details | fitness
[1], first compound 0.1 µg/mL, partner 0.625 µg/mL | 0.971
[1], first compound 0.1 µg/mL, partner 1.25 µg/mL | 0.93
[1], first compound 0.1 µg/mL, partner 2.5 µg/mL | 0.887
[1], first compound 0.2 µg/mL, partner 0.625 µg/mL | 0.928
[1], first compound 0.2 µg/mL, partner 1.25 µg/mL | 0.9
[1], first compound 0.2 µg/mL, partner 2.5 µg/mL | 0.876
[1], first compound 0.4 µg/mL, partner 0.625 µg/mL | 0.991
[1], first compound 0.4 µg/mL, partner 1.25 µg/mL | 0.894
[1], first compound 0.4 µg/mL, partner 2.5 µg/mL | 0.933
[2], first compound 0.1 µg/mL, partner 0.625 µg/mL | 0.884
[2], first compound 0.1 µg/mL, partner 1.25 µg/mL | 0.953
[2], first compound 0.1 µg/mL, partner 2.5 µg/mL | ≥ 1
[2], first compound 0.2 µg/mL, partner 0.625 µg/mL | 0.812
[2], first compound 0.2 µg/mL, partner 1.25 µg/mL | 0.853
[2], first compound 0.2 µg/mL, partner 2.5 µg/mL | 0.866
[3], first compound 0.2 µg/mL, partner 1.073 µg/mL | 0.752
[3], first compound 0.2 µg/mL, partner 2.145 µg/mL | 0.681
[3], first compound 0.2 µg/mL, partner 4.29 µg/mL | 0.659
[3], first compound 0.215 µg/mL, partner 1.25 µg/mL | 0.874
[3], first compound 0.215 µg/mL, partner 2.5 µg/mL | 0.87
[3], first compound 0.215 µg/mL, partner 5 µg/mL | 0.844
[3], first compound 0.4 µg/mL, partner 1.073 µg/mL | 0.68
[3], first compound 0.4 µg/mL, partner 2.145 µg/mL | 0.654
[3], first compound 0.4 µg/mL, partner 4.29 µg/mL | 0.647
[3], first compound 0.43 µg/mL, partner 1.25 µg/mL | 0.765
[3], first compound 0.43 µg/mL, partner 2.5 µg/mL | 0.761
[3], first compound 0.43 µg/mL, partner 5 µg/mL | 0.738
[3], first compound 0.8 µg/mL, partner 1.073 µg/mL | 0.502
[3], first compound 0.8 µg/mL, partner 2.145 µg/mL | 0.435
[3], first compound 0.8 µg/mL, partner 4.29 µg/mL | 0.428
[3], first compound 0.86 µg/mL, partner 1.25 µg/mL | 0.579
[3], first compound 0.86 µg/mL, partner 2.5 µg/mL | 0.578
[3], first compound 0.86 µg/mL, partner 5 µg/mL | 0.557

Details | Bliss interaction score
[4] | 0.073
[5] | -0.0532
[6] | 0.0836
[7] | 0.138
